# How the values were obtained:
# [1] = system: T.b.r. strain STIB900; test: STIB900 acute mouse model for African trypanosomiasis; type: in vivo
# [2] = system: Poly(d(A-T))2; test: DNA thermal melting; type: binding; settings: from ΔTm values; for Reduction in DNA affinity: compared within the bis-guanidine series
# [3] = system: Trypanosoma brucei rhodesiense (T.b.r.) strain STIB900; type: cell-based; settings: RHODESIENSE|STIB900, read-out: T.b.r. IC50
smiles,measurement,setting,value
"CCOC(=O)/N=C(\NC)Nc1ccc(-c2ccc(-c3ccc(N/C(=N/C(=O)OCC)NC)cc3)cc2)cc1 [8c, 4,4″-Bis(N′-ethoxycarbonyl-N″-methyl)-guanidino-[1,1′;4′,1″]terphenyl]",Cures (mice that survived 60 days and are parasite-free),[1]; 25 mg/kg po for 4 days,no cures were achieved
"CCOC(=O)/N=C(\N)Nc1ccc(-c2ccc(-c3ccc(N/C(N)=N/C(=O)OCC)cc3)cc2)cc1 [8a, 4,4″-Bis(N′-ethoxycarbonyl)-guanidino-[1,1′;4′,1″]terphenyl]",Cures (mice that survived 60 days and are parasite-free),[1]; 25 mg/kg po for 4 days,no cures were achieved
"N=C(N)Nc1ccc(-c2ccc(-c3ccc(NC(=N)N)cc3)cc2)cc1 [6a, 4,4″-Bis-guanidino-[1,1′;4′,1″]terphenyl]",Reduction of DNA affinity from that of the corresponding diamidine V,[2],about 20%
same,Cures (mice that survived 60 days and are parasite-free),[1]; 20 mg/kg ip for 4 days,none gave cures
"CNC(=N)Nc1ccc(-c2ccc(-c3ccc(NC(=N)NC)cn3)cc2)nc1 [9d, 1,4-Bis-[5′-(N′-methylguanidino)-pyridin-2′-yl]-phenylene]",Acute toxicity in treated mice,[1]; 20 mg/kg ip,showed acute toxicity
same,Cures (mice that survived 60 days and are parasite-free),[1]; 20 mg/kg ip for 4 days,none gave cures
"N=C(N)Nc1ccc(-c2ccc(-c3ccc(NC(=N)N)cn3)cc2)nc1 [6b, 1,4-Bis-[5′-guanidinopyridin-2′-yl]phenylene]",Reduction in DNA affinity,[2],approximately one third
"CNC(=N)Nc1ccc(-c2ccc(-c3ccc(NC(=N)NC)cc3)cc2)cc1 [9c, 4,4″-Bis(N′-methyl)-guanidino-[1,1′;4′,1″]terphenyl]",Cures (mice that survived 60 days and are parasite-free),[1]; 20 mg/kg ip for 4 days,none gave cures
"CC(C)NC(=N)Nc1ccc(-c2ccc(-c3ccc(NC(=N)NC(C)C)cc3)cc2)cc1 [9e, 4,4″-Bis(N′-isopropyl)-guanidino-[1,1′;4′,1″]terphenyl]",Reduction in DNA affinity,[2],approximately one third
N=C(N)c1ccc(-c2ccc(-c3ccc(C(=N)N)cc3)cc2)cc1 [V],IC50,[3],5 nM
